Each structure is given as a SMILES string.

The assay concerns hIL-6 mRNA. In words: Quantification of hIL-6 mRNA. The class given is cell-based, human. On the set-up: key: Active: an active compound is one that causes a ≥20% inhibition in IL-6 mRNA at a concentration less than or equal to 10 μM. The conditions noted are these: IL-6 mRNA by real-time PCR; differentiated U937 cells, 1 h pretreatment, lipopolysaccharide stimulation 3 h; concentration ≤10 μM. The protocol:
In this example, […] in tissue culture cells was quantitated to measure the transcriptional inhibition of hIL-6 when treated with a compound of the invention.
A human leukemic monocyte lymphoma cell line (U937) was plated (3.2×10^5 cells per well) in a 96-well plate in 100 μL RPMI-1640, and differentiated for 3 days prior to the addition of the compound of interest. The cells were pretreated for 1 h with the test compound prior to stimulation with lipolysaccharide from Escherichia coli. The cells were incubated at 37° C. for 3 h before the cells were harvested. At time of harvest, the spent media was removed from the cells and the cells were rinsed in 200 μL PBS. Cell lysis solution (70 μL) was added the cells in each well and incubated for 5-10 min at room temperature, to allow for complete cell lysis and detachment. mRNA was then prepared using the “mRNA Catcher PLUS plate” (Invitrogen), according to the protocol supplied. After the last wash, as much wash buffer as possible was aspirated without allowing the wells to dry. Elution buffer (E3, 70 μL) was then added to each well. mRNA was then eluted by incubating the mRNA Catcher PLUS plate with Elution Buffer for 5 min at 68° C. and then immediately placing the plate on ice.
The eluted mRNA isolated was then used in a one-step quantitative real-time PCR reaction, using components of the Ultra Sense Kit together with Applied Biosystems primer-probe mixes. Real-time PCR data was analyzed, normalizing the Ct values for hIL-6 to an internal control, prior to determining the fold induction of each unknown sample, relative to the control.
(In general: Quantitative PCR measures a nucleic acid by following its amplification.)
For `COc1cc(OC)c2c(=O)[nH]c(-c3ccc(N4CCOCC4)cc3)nc2c1` [5,7-dimethoxy-2-(4-morpholinophenyl)quinazolin-4(3H)-one], the “Inhibition of IL-6 expression” value is reported as “Active”.

Turning to `COc1cc(OC)c2c(=O)[nH]c(-c3ccc4[nH]c(CO)cc4c3)nc2c1` [2-(2-(Hydroxymethyl)-1H-indol-5-yl)-5,7-dimethoxyquinazolin-4(3H)-one], the “Inhibition of IL-6 expression” value is on record as “Active”.

With `COc1cc(OC)c2c(=O)[nH]c(-c3ccc(N4CCN(C(=O)c5cccs5)CC4)cc3)nc2c1` [5,7-Dimethoxy-2-(4-(4-(thiophene-2-carbonyl)piperazin-1-yl)phenyl)quinazolin-4(3H)-one], the “Inhibition of IL-6 expression” value was “Active”.

As to `COc1cc(OC)c2c(=O)[nH]c(-c3cc(C)c(OCCN4CCN(C)CC4)c(C)c3)cc2c1` [3-(3,5-dimethyl-4-(2-(4-methylpiperazin-1-yl)ethoxy)phenyl)-6,8-dimethoxyisoquinolin-1(2H)-one], the “Inhibition of IL-6 expression” value is on record as “Active”.

With `COc1cc(OC)c2c(=O)[nH]c(-c3cc(C)c(OCCCN4CCCC4)c(C)c3)nc2c1` [2-(3,5-Dimethyl-4-(3-(pyrrolidin-1-yl)propoxy)phenyl)-5,7-dimethoxyquinazolin-4(3H)-one], the “Inhibition of IL-6 expression” value was “Active”.

Take `COc1cc(OC)c2c(=O)[nH]c(-c3ccc(N4CCN(Cc5ccc(F)cc5)CC4)cc3)nc2c1` [2-(4-(4-(4-Fluorobenzyl)piperazin-1-yl)phenyl)-5,7-dimethoxyquinazolin-4(3H)-one]: the “Inhibition of IL-6 expression” value was “Active”.

Turning to `CNC1CCN(c2ccc(-c3nc4cc(OC)cc(OC)c4c(=O)[nH]3)cc2)C1` (stereo not shown) [5,7-Dimethoxy-2-(4-(3-(methylamino)pyrrolidin-1-yl)phenyl)quinazolin-4(3H)-one], the “Inhibition of IL-6 expression” value is recorded as “Active”.

Take `COc1cc(OC)c2c(=O)[nH]c(-c3ccc(C4CCN(C(=O)OC(C)(C)C)CC4)cc3)nc2c1` [Tert-butyl 4-(4-(5,7-dimethoxy-4-oxo-3,4-dihydroquinazolin-2-yl)phenyl)piperidine-1-carboxylate]: the “Inhibition of IL-6 expression” value is “Active”.

Turning to `COc1cc(OC)c2c(=O)[nH]c(-c3ccc(CN4CCOCC4)cc3)nc2c1` [5,7-dimethoxy-2-(4-(morpholinomethyl)phenyl)quinazolin-4(3H)-one], the “Inhibition of IL-6 expression” value was “Active”.

Consider `COc1cc(OC)c2c(=O)[nH]c(-c3ccc4[nH]nc(CO)c4c3)nc2c1` [2-(3-(Hydroxymethyl)-1H-indazol-5-yl)-5,7-dimethoxyquinazolin-4(3H)-one], for which the “Inhibition of IL-6 expression” value is “Active”.

For `COc1cc(OC)c2c(=O)[nH]c(-c3ccc(N4CCN(C(=O)c5ccncc5)CC4)cc3)nc2c1` [2-(4-(4-Isonicotinoylpiperazin-1-yl)phenyl)-5,7-dimethoxyquinazolin-4(3H)-one], the “Inhibition of IL-6 expression” value is “Active”.

For `COc1cc(OC)c2c(=O)[nH]c(-c3ccc(N4C[C@@H](C)N(C(C)=O)[C@@H](C)C4)cc3)nc2n1` [2-(4-((3R,5S)-4-Acetyl-3,5-dimethylpiperazin-1-yl)phenyl)-5,7-dimethoxypyrido[2,3-d]pyrimidin-4(3H)-one], the “Inhibition of IL-6 expression” value is on record as “Active”.

With `COc1cc(OC)c2c(=O)[nH]c(-c3ccc(N4CCC(=O)CC4)cc3)nc2n1` [5,7-Dimethoxy-2-(4-(4-oxopiperidin-1-yl)phenyl)pyrido[2,3-d]pyrimidin-4(3H)-one], the “Inhibition of IL-6 expression” value is listed as “Active”.

On to `COc1cc(OC)c2c(=O)[nH]c(-c3ccc(OC4CCN(C(C)=O)CC4)cc3)nc2c1` [2-(4-(1-Acetylpiperidin-4-yloxy)phenyl)-5,7-dimethoxyquinazolin-4(3H)-one], for which the “Inhibition of IL-6 expression” value is listed as “Active”.

For `COc1cc(OC)c2c(=O)[nH]c(-c3ccc(N4C[C@@H](C)N(C(C)C)[C@@H](C)C4)cc3)nc2c1` [2-(4-((3R,5S)-4-Isopropyl-3,5-dimethylpiperazin-1-yl)phenyl)-5,7-dimethoxyquinazolin-4(3H)-one], the “Inhibition of IL-6 expression” value was “Active”.

Turning to `COc1cc(OC)c2c(=O)[nH]c(-c3ccc(N4CCCN(C(C)=O)CC4)cc3)nc2c1` [2-(4-(4-Acetyl-1,4-diazepan-1-yl)phenyl)-5,7-dimethoxyquinazolin-4(3H)-one], the “Inhibition of IL-6 expression” value is given as “Active”.

With `COc1cc(OC)c2c(=O)[nH]c(-c3ccc(Nc4ccncc4)cc3)nc2c1` [5,7-Dimethoxy-2-(4-(pyridin-4-ylamino)phenyl)quinazolin-4(3H)-one], the “Inhibition of IL-6 expression” value is given as “Active”.

As to `COc1cc(OC)c2c(=O)[nH]c(-c3ccc(N4CCN(Cc5ccccc5)CC4)cc3)nc2c1` [2-(4-(4-Benzylpiperazin-1-yl)phenyl)-5,7-dimethoxyquinazolin-4(3H)-one], the “Inhibition of IL-6 expression” value is “Active”.

For the compound `COc1cc(OC)c2c(=O)[nH]c(-c3ccc(NS(C)(=O)=O)cc3)nc2c1` [N-(4-(5,7-Dimethoxy-4-oxo-3,4-dihydroquinazolin-2-yl)phenyl)methanesulfonamide], the “Inhibition of IL-6 expression” value is reported as “Active”.

`COc1cc(OC)c2c(=O)[nH]c(-c3ccc(N4CCN(C(=O)c5cccnc5)CC4)cc3)nc2c1` [5,7-Dimethoxy-2-(4-(4-nicotinoylpiperazin-1-yl)phenyl)quinazolin-4(3H)-one]: the “Inhibition of IL-6 expression” value is “Active”.

Take `COc1cc(OC)c2c(=O)[nH]c(-c3ccc(N4CCC(NC(=O)N(C)C)CC4)cc3)nc2c1` [3-(1-(4-(5,7-Dimethoxy-4-oxo-3,4-dihydroquinazolin-2-yl)phenyl)piperidin-4-yl)-1,1-dimethylurea]: the “Inhibition of IL-6 expression” value was “Active”.

For the compound `COc1cc(OC)c2c(=O)[nH]c(-c3ccc(C4CCNCC4)cc3)nc2c1` [5,7-Dimethoxy-2-(4-(piperidin-4-yl)phenyl)quinazolin-4(3H)-one], the “Inhibition of IL-6 expression” value is “Active”.

In the case of `COc1cc(OC)c2c(=O)[nH]c(-c3ccc(N4CCN(C=O)CC4)cc3)nc2c1` [4-(4-(5,7-Dimethoxy-4-oxo-3,4-dihydroquinazolin-2-yl)phenyl)piperazine-1-carbaldehyde], the “Inhibition of IL-6 expression” value is recorded as “Active”.

On to `COc1cc(OC)c2c(=O)[nH]c(-c3ccc(CN4CCN(C(C)C)CC4)cc3)nc2c1` [2-(44(4-Isopropylpiperazin-1-yl)methyl)phenyl)-5,7-dimethoxyquinazolin-4(3H)-one], for which the “Inhibition of IL-6 expression” value is listed as “Active”.

As to `COc1cc(OC)c2c(=O)[nH]c(-c3ccc(CN4CCN(C)CC4)cc3)nc2c1` [5,7-dimethoxy-2-(4-((4-methylpiperazin-1-yl)methyl)phenyl)quinazolin-4(3H)-one], the “Inhibition of IL-6 expression” value was “Active”.

Turning to `COc1cc(OC)c2c(=O)[nH]c(-c3ccc(Nc4ccc(C)cc4)cc3)nc2c1` [5,7-Dimethoxy-2-(4-(p-tolylamino)phenyl)quinazolin-4(3H)-one], the “Inhibition of IL-6 expression” value is given as “Active”.

As to `COc1cc(OC)c2c(=O)[nH]c(-c3ccc(CN4CCC(NC(C)C)CC4)cc3)nc2c1` [2-(4-((4-(Isopropylamino)piperidin-1-yl)methyl)phenyl)-5,7-dimethoxyquinazolin-4(3H)-one], the “Inhibition of IL-6 expression” value is reported as “Active”.

With `COc1cc(OC)c2c(=O)[nH]c(-c3ccc(C4CCN(C(C)=O)CC4)cc3)nc2c1` [2-(4-(1-acetylpiperidin-4-yl)phenyl)-5,7-dimethoxyquinazolin-4(3H)-one], the “Inhibition of IL-6 expression” value is listed as “Active”.

As for `COc1cc(OC)c2c(=O)[nH]c(-c3ccc(N4CCC(NC(C)C)CC4)cc3)nc2c1` [2-(4-(4-(Isopropylamino)piperidin-1-yl)phenyl)-5,7-dimethoxyquinazolin-4(3H)-one], the “Inhibition of IL-6 expression” value is reported as “Active”.

On to `COc1cc(OC)c2c(=O)[nH]c(-c3ccc(N4CCC(N(Cc5ccccc5)C(C)=O)CC4)nc3)nc2c1` [N-Benzyl-N-(1-(5-(5,7-dimethoxy-4-oxo-3,4-dihydroquinazolin-2-yl)pyridin-2-yl)piperidin-4-yl)acetamide], for which the “Inhibition of IL-6 expression” value was “Active”.

Regarding `COc1cc(OC)c2c(=O)[nH]c(-c3ccc(OC4CCN(C(=O)N(C)C)CC4)cc3)nc2c1` [4-(4-(5,7-Dimethoxy-4-oxo-3,4-dihydroquinazolin-2-yl)phenoxy)-N,N-dimethylpiperidine-1-carboxamide], the “Inhibition of IL-6 expression” value is on record as “Active”.

As to `COc1cc(OC)c2c(=O)[nH]c(-c3ccc(N4CCC(N(C(C)=O)C(C)C)CC4)cc3)nc2c1` [N-(1-(4-(5,7-dimethoxy-4-oxo-3,4-dihydroquinazolin-2-yl)phenyl)piperidin-4-yl)-N-isopropylacetamide], the “Inhibition of IL-6 expression” value is “Active”.

Regarding `COc1cc(OC)c2c(=O)[nH]c(-c3ccc(N4CCNC(C)C4)cc3)nc2c1` (stereo not shown) [5,7-Dimethoxy-2-(4-(3-methylpiperazin-1-yl)phenyl)quinazolin-4(3H)-one], the “Inhibition of IL-6 expression” value is recorded as “Active”.

With `COc1cc(OC)c2c(=O)[nH]c(-c3ccc(N4CCN(C(=O)c5ccccn5)CC4)cc3)nc2c1` [5,7-Dimethoxy-2-(4-(4-picolinoylpiperazin-1-yl)phenyl)quinazolin-4(3H)-one], the “Inhibition of IL-6 expression” value is listed as “Active”.

(Values after US11407719B2, “Anti-inflammatory agents” (Resverlogix Corp., priority 2009, dated 2022).)
